Test system: rats with TGFβ1-induced trabecular meshwork fibrosis
Assay: Rodent model of anterior segment fibrosis / ocular hypertension (IC TGFβ1), s.c. LMW-DS 15 mg/kg daily
Format: in vivo, rat
Conditions: day 28
Protocol: Before induction of raised IOP, rats were randomly assigned into two groups (for saline vehicle and LMW-DS treatment). Induction of raised IOP was induced as previously described (Hill LJ, et al. Decorin reduces intraocular pressure and retinal ganglion cell loss in rodents through fibrolysis of the scarred trabecular meshwork. Investigative ophthalmology & visual science. 2015; 56(6): 3743-57). At 0 d, a 15° disposable blade was used to make a self-sealing tunnel through the cornea and this access point was employed for all subsequent twice weekly 3.5 µl IC injections of 5 ng/ml TGFβ1 (Peprotech, London, UK), carried out using sterile glass micropipettes (Harvard Apparatus, Kent, UK) over the 28 d experiment. IOP was also measured twice-weekly (immediately prior to the IC injection) throughout the 28 d experiment. […] At 14 d, rats received either subcutaneous injections of 15 mg/kg LMW-DS (Tikomed AB) or an equivalent saline volume, which continued daily for 14 d. OCT measurements of the RFNL were taken at 28 d as a surrogate for RGC density and ocular tissues from both groups were processed for immunohistochemistry to assess levels of TM fibrosis and RGC survival.
Adult 10 week old) male Sprague Dawley rats (Charles River, Kent, UK) were housed with free access to food and water under a 12 h dark/light cycle. Surgery was performed at the Biomedical Services Unit at the University of Birmingham (UK) in accordance with the Home Office guidelines set out in the 1986 Animal Act (UK) and the ARVO Statement for the Use of Animals in Ophthalmic and Vision Research. Intraocular injections, optical coherence tomography and intraocular pressure measurements were all taken whilst rats were under inhaled anesthesia using between 2% - 5% isofluorane / 98% - 95% O2 (National Vet Supplies, UK). The welfare of all rats was monitored closely at all times.
IOP measurements were obtained using an iCare Tonolab (ICare, Helsinki, Finland) calibrated for rats. IOP was recorded twice weekly between 9 am and 11 am throughout the 28 d experiment to avoid confounding circadian variabilities in IOP. Immediately after induction of anesthesia, six rebound measurements were taken with the tonometer from the central cornea and averaged to give a single reading (mmHg). Each graphical data point represents the mean ± SEM of three readings (6 rebounds) taken from each rat sequentially to ensure accurate measurements.
Retinal nerve fiber layer (RNFL) measurements were taken at 28 d using a Spectralis HRA3 confocal scanning laser ophthalmoscope (Heidelberg Engineering, Heidelberg, Germany). Images were obtained from rats whilst under inhalational anesthesia (as described in the ‘Animals and Surgery’ section above). OCT images were taken of the retina around the optic nerve head and in-built software was used to segment images and quantify the RNFL thickness.
Rats were euthanized by an intraperitoneal injection of sodium pentobarbital (National Veterinary Supplies) on 28 d and intracardially perfused with 4% paraformaldehyde (PFA; TAAB, Aldermaston, UK) in PBS whilst under terminal anesthesia. Eyes were removed and immersion fixed in 4% PFA in PBS for 2 hours at room temperature and then cryoprotected using increasing concentrations of (10%, 20% and 30% sucrose) for 24 hours each at 4° C. […]

Question: Which “fibronectin in the TM (immunoreactive)” value does the source give for sodium salt of dextran sulfate [LMW-DS] here?
Answer: 40.2 ± 4.0%

Question: What about the “laminin in the TM (immunoreactive)” value of the same substance?
Answer: 25.6 ± 3.5%

Question: What about the “retinal nerve fibre layer (RNFL) thickness (OCT)” value of the same substance?
Answer: 59.9 ± 1.2 µm

Question: What about the “surviving retinal ganglion cells (RGC)” value of the same substance?
Answer: 12.6 ± 0.4 RGC/mm

Question: And the IOP (IC TGFβ1 with SC LMW-DS from day 14)?
Answer: 11.4 ± 0.2 mmHg

Source: patent US20230346827A1 (priority 2020, published 2023)
